Experimental data taken from US20140155445A1, “Compounds and Methods for Treating Cancer and Diseases of the Central Nervous System” (Osta Biotechnologies Inc., priority 2007, published 2014).
Where a name gives a salt, the structure may show the parent alone.

Assays:
[1] = target: T1, HO-1 (rat spleen) (Rattus norvegicus, UniProt P06762); assay: HO enzymatic activity in rat spleen microsomal fraction (CO formed from methemalbumin, gas chromatography); assay type: biochemical; conditions: rat spleen microsomes; average ± standard deviation of replicate experiments; read-out: IC50 HO-1 (rat spleen)/μM
T1 construct: Spleen microsomes were used as a source of HO-1; from tissue; host or cells: spleen microsomal fraction of adult male Sprague-Dawley rats
T1 sequence (P06762 1-289): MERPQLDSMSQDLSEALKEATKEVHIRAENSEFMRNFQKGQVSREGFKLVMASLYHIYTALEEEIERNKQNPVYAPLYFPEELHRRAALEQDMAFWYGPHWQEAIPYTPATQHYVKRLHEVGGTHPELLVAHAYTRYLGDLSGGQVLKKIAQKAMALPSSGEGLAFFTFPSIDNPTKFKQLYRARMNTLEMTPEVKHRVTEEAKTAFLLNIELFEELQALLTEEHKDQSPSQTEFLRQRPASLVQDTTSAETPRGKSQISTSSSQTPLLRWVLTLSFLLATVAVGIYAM
Protocol: (§1) Incubations for HO activity analysis were done under conditions for which the rate of CO formation (pmol CO×min^−1×mg protein^−1) was linear with respect to time and microsomal protein concentration. Briefly, reaction mixtures (150 μL) consisting of 100 mM phosphate buffer (pH 7.4), 50 μM methemalbumin, and 1 mg/mL protein were pre-incubated with the inhibitors at final concentrations ranging from 0.1-100 μM for 10 minutes at 37° C. Reactions were initiated by adding NADPH at a final concentration of 1 mM and incubations were performed for an additional 15 minutes at 37° C.
(§2) Incubations for HO activity analysis were done under conditions for which the rate of CO formation (pmol CO/mg protein/minute) was linear with respect to time and microsomal protein concentration. Briefly, reaction mixtures (150 μL) consisting of 100 mM phosphate buffer (pH 7.4), 50 μM methemalbumin and 1 mg/mL protein were pre-incubated with the vehicle (ethanol or water in which the inhibitors were dissolved), or inhibitors at final concentrations ranging from 0.1-1000 μM for 10 minutes at 37° C. Reactions were initiated by adding β-NADPH at a final concentration of 1 mM and incubations were carried out for an additional 15 minutes at 37° C. Reactions were stopped by instantly freezing the reaction mixture on pulverized dry ice and CO formation was measured by gas chromatography using a TA 3000R Process Gas Analyzer (Trace Analytical/Ametek, Newark, Del., USA).
(§3) The values on the abscissa represent the decimal logarithm of the inhibitor's concentration (in μM), whereas the values of the activity on the ordinate are expressed as a percentage of the control experiments without inhibitor.
(§4) The IC50 values for the replicate experiments were employed to generate the reported standard deviation value.

[2] = target: T2, HO-2 (rat brain) (Rattus norvegicus, UniProt P23711); assay: HO enzymatic activity in rat brain microsomal fraction (CO formed from methemalbumin, gas chromatography); assay type: biochemical; conditions: rat brain microsomes; average ± standard deviation of replicate experiments; read-out: IC50 HO-2 (rat brain)/μM
T2 construct: brain microsomes were used as a source of HO-2; from tissue; host or cells: brain microsomal fraction of adult male Sprague-Dawley rats
T2 sequence (P23711 1-315): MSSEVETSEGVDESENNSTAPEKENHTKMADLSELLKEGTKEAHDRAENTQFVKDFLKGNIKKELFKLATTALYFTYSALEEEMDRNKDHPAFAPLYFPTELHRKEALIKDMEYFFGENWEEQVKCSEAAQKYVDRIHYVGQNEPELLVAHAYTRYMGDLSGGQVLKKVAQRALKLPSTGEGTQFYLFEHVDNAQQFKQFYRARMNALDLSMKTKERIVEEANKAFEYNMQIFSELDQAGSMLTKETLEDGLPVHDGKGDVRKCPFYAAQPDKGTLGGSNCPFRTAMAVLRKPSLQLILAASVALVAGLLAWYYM
Protocol: as §1, §2, §3, §4

Compound	IC50 [1] [µM]	IC50 [2] [µM]
c1ccc2cc(C3(Cn4ccnc4)OCCO3)ccc2c1 [1-(2-naphthalen-2-yl-[1,3]dioxolan-2-ylmethyl)-1H-imidazole hydrochloride]	2.63 ± 0.06	> 100
O=C(Cn1cncn1)c1ccc2c(c1)OCCO2	18 ± 4	> 100
CS(=O)(=O)c1nnn(CC(=O)CCc2ccccc2)n1 [1-(5-Methanesulfonyl-tetrazol-2-yl)-4-phenyl-butan-2-one]	> 100	> 100
Nc1cccc(SC[C@@H]2CO[C@@](CCc3ccc(Cl)cc3)(Cn3ccnc3)O2)c1 [(2R,4S)-2-[2-(4-chlorophenyl)ethyl]-2-[(1H-imidazol-1-yl)methyl]-4-[{(3-aminophenyl]-4-[{(3-aminophenyl)thio}meth-yl]-1,3-dioxolane hydrochloride]	4 ± 2	6 ± 1
O=C(CCc1ccccc1)Cn1ccnc1-c1ccccc1 [4-phenyl-1-(2-phenyl-imidazol-1-yl)butan-2-one hydrochloride]	> 100	> 100
Clc1ccc(CC[C@@]2(Cn3ccnc3)OC[C@@H](CSc3ccc(Br)cc3)O2)cc1 [(2R,4S)-2-[2-(4-chlorophenyl)ethyl]-2-[(1H-imidazol-1-yl)methyl]-4-[{(4-bromophenyl)thio}meth-yl]-1,3-dioxolane hydrochloride]	2.1 ± 0.9	2.4 ± 0.1
c1cn(CCCCCCCCCCCCn2ccnc2)cn1 [1,12-bis-(1H-imidazol-1-yl)dodecane dihydrochloride]	~4	~9
c1ccc(CCC2(Cn3ccnn3)OCCO2)cc1 [2-(2-phenethyl)-2-{(1H-[1,2,3]triazol-1-yl)methyl}-1,3-dioxolane hydrochloride]	> 100	> 100

More lines, now with the values ahead:

IC50 [1] [µM]	IC50 [2] [µM]	Compound
28 ± 15	29 ± 6	COc1ccc(OCC2CO[C@](CCc3ccc(Cl)cc3)(Cn3ccnc3)O2)cc1 (stereo in doubt) [(2S,4S)-2-[2-(4-chlorophenyl)ethyl]-2-[(1H-imidazol-1-yl)methyl]-4-[(4-methoxyphenyloxy)meth-yl]-1,3-dioxolane hydrochloride]
22 ± 2	> 100	O=C(CCc1ccccc1)Cn1cncc1Br [1-(5-Bromo-1H-imidazol-1-yl)-4-phenyl-2-butanone]
1.5 ± 0.2	6 ± 0.1	O=C(CCCc1ccccc1)Cn1ccnc1 [1-imidazol-1-yl-5-phenyl-pentan-2-one hydrochloride]
> 100	> 100	CCOC(=O)N1CCC(Nc2nc3ccccc3[nH]2)CC1
> 100	> 100	Fc1ccc(-c2ccno2)cc1
0.79 ± 0.04	16 ± 5	O=C(Cn1cncn1)c1cccc2ccccc12 [1-naphthalen-1-yl-2-[1,2,4]triazol-1-yl-ethanone hydrochloride]
2.2 ± 0.5	> 100	c1cn(CC23CC4CC(CC(C4)C2)C3)cn1 [1-adamantan-1-ylmethyl-1H-imidazole hydrochloride]
3.6 ± 0.2	38 ± 5	[N-]=[N+]=NC[C@@H]1CO[C@@](CCc2ccc(Cl)cc2)(Cn2ccnc2)O1 [(2R,4R)-1-{4-azidomethyl-2-[2-(4-chloro-phenyl)-ethyl]-[1,3]dioxolan-2-ylmethyl}-1H-imidazole]
8.3 ± 0.9	51 ± 26	Clc1ccc(/C(Cn2ccnc2)=N/OCc2ccc(Br)cc2)cc1 [1-(4-chloro-phenyl)-2-imidazol-1-yl-ethanone O-(4-bromo-benzyl)-oxime hydrochloride]
4 ± 0.7	> 100	Brc1cccc(C2(Cn3ccnc3)OCCO2)c1 [1-[2-(3-bromo-phenyl)-[1,3]dioxolan-2-ylmethyl]-1H-imidazole hydrochloride]
46 ± 8	> 100	O/N=C(\Cn1ccnc1)c1ccc(Cl)cc1 [1-(4-chloro-phenyl)-2-imidazol-1-yl-ethanone oxime]
> 100	> 100	COc1ccc(CCN2CCC(Nc3nc4cc(Cl)c(Cl)cc4n3Cc3ccc(F)cc3)CC2)cc1
